From patent US20230365563A1, “QUINAZOLINE COMPOUND AND APPLICATION THEREOF” (SHANGHAI PHARMACEUTICALS HOLDING CO., LTD., priority 2020, published 2023)
“And” between values parts separate entries of the source, which are not always exact repeats. Identical values can stand only once. Counter-ions that a name gives are not always drawn.

Experiments:
KRAS_WT and SOS1 = target: T1, KRAS_WT and SOS1 (Homo sapiens, UniProt P01116); experiment: Inhibition of KRAS_WT/SOS1 binding (Cisbio binding kit, 665/615 ratio), Effect Embodiment C; conditions: read-out: GTP-KRAS-WT:SOS1 IC50
T1 construct: purchased
T1 sequence (P01116 1-188 isoform P01116-2): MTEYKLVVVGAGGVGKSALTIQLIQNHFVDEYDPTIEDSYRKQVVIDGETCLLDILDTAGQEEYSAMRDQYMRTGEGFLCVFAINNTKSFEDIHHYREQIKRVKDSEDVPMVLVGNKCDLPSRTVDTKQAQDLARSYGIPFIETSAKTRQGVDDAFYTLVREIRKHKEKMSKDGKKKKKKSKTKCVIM
Method in brief: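 Compounds tested as 3-fold, 11-point dilutions in duplicate at 1% DMSO final against the KRAS_WT/SOS1 binding system. IC50 derived by nonlinear regression fit.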

KRAS_G12D and cRAF = target: T2, KRAS_G12D and cRAF (Homo sapiens, UniProt P01116, G12D); experiment: Inhibition of KRAS_G12D/cRAF binding (Cisbio binding kit, 665/615 ratio), Effect Embodiment B; conditions: read-out: GTP-KRAS-G12D:CRAF IC50
T2 construct: purchased
T2 sequence (P01116 1-188 isoform P01116-2 G12D): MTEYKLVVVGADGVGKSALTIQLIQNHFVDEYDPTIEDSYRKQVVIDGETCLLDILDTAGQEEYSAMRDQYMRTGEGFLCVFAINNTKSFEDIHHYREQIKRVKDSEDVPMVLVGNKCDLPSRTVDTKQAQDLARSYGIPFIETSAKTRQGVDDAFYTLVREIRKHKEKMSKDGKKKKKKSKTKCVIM
Method in brief: (§1)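 Compounds are tested over eleven threefold dilution steps in duplicate, with final DMSO at 1%.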

KRAS-G12D and SOS1 = target: T3, KRAS-G12D and SOS1 (Homo sapiens, UniProt P01116, G12D); experiment: Inhibition of KRAS-G12D/SOS1 binding (Cisbio binding kit, 665/615 ratio), Effect Embodiment A; conditions: read-out: GTP-KRAS-G12D:SOS1 IC50
T3 construct: purchased
T3 sequence (P01116 1-188 isoform P01116-2 G12D): as above
Method in brief: as §1

| SMILES | IC50 (KRAS_WT and SOS1) | IC50 (KRAS_G12D and cRAF) | IC50 (KRAS-G12D and SOS1) |
| --- | --- | --- | --- |
| C[C@@H]1CN(CCCOc2nc(N3CC4CCC(C3)N4)c3cc(Cl)c(-c4cc(O)cc5ccccc45)c(F)c3n2)C[C@H](C)O1 (single isomer, unassigned) [Compound 125, 4-((S or R)-4-((1R,5S)-3,8-diazacyclo[3.2.1]octan-3-yl)-6-chloro-2-(3-((2S,6R)-2,6-dimethylmorpholine)propoxy)-8-fluoroquinolin-7-yl)naphthalen-2-ol hydrochloride] | 1.68 µM | 0.17 µM | 0.0527 µM |
| C[C@@H](COc1nc(N2CC3CCC(C2)N3)c2cc(Cl)c(-c3cc(O)cc4ccccc34)c(F)c2n1)CN1C2CC3CC1CC(C2)O3 (single isomer, unassigned) [Compound 230, 4-((S or R)-2-((R)-3-((1R,3R,5R,7R)-2-oxa-6-azadamantan-6-yl)-2-methylpropoxy)-4-((1R,5S)-3,8-diazabicyclo[3.2.1]octan-3-yl)-6-chloro-8-fluoroquinazolin-7-yl)naphthalen-2-ol diformate] | 0.626 µM | 0.0281 µM | 0.0157 µM |
| C#Cc1cccc2cc(O)cc(-c3c(F)cc4c(N5CC6CCC(C5)N6)nc(OCCCN5C6CCC5COC6)nc4c3F)c12 (single isomer, unassigned) [Compound 273a, 4-((7S or 7R)-2-(3-(3-oxa-8-azabicyclo[3.2.1]octan-8-yl)propoxy)-4-((1R,5S)-3,8-diazabicyclo[3.2.1]octan-3-yl)-6,8-difluoroquinazolin-7-yl)-5-ethynylnaphthalen-2-ol diformate] | 0.0698 µM | 0.00791 µM | 0.0113 µM |
| Oc1cc(-c2c(Cl)cc3c(N4CC5CCC(C4)N5)nc(OCC(CN4C5CCC4COC5)C4CC4)nc3c2F)c2ccccc2c1 (single isomer, unassigned) [Compound 209a, 4-((7S or 7R))-2-(2(R or S))-3-(3-oxa-8-azabicyclo[3.2.1]octan-8-yl)-2-cyclopropylpropoxy)-4-((1R,5S)-3,8-diazabicyclo[3.2.1]octan-3-yl)-6-chloro-8-fluoroquinazolin-7-yl)naphthalen-2-ol diformate] | 5.65 µM | 0.0594 µM | 0.0361 µM |
| CN(C)C1CN(c2nc(N3CC4CCC(C3)N4)c3cc(Cl)c(-c4cc(O)cc5cccc(Cl)c45)c(F)c3n2)C1 (single isomer, unassigned) [Compound 65b, 4-((R or S)-4-((1R,5S)-3,8-diazabicyclo[3.2.1]octan-3-yl)-6-chloro-2-(3-(dimethylamino)azetidin-1-yl)-8-fluoroquinazolin-7-yl)-5-chloronaphthalen-2-ol] | 0.27 µM | 0.434 µM | 0.0843 µM |
| CN(C)CCCOc1nc(N2C[C@H]3CC[C@@H](C2)N3)c2ccc(-c3cc(O)cc4ccccc34)c(F)c2n1 [Compound 143, 4-(4-((1R,5S)-3,8-diazabicyclo[3.2.1]octan-3-yl)-2-(3-(dimethylamino)propoxy)-8-fluoroquinazolin-7-yl)naphthalen-2-ol] | 0.765 µM | 0.0477 µM | 0.0167 µM and 0.0212 µM |
| CN(C)C1CCC(Oc2nc(N3CC4CCC(C3)N4)c3cc(Cl)c(-c4cc(O)cc5ccccc45)c(F)c3n2)C1 (single isomer, unassigned) [Compound 70d, 4-((S or R)-4-((1R,5S)-3,8-diazabicyclo[3.2.1]octan-3-yl)-6-chloro-2-((1R,3R or 1S,3S)-3-(dimethylamino)cyclopentyl)oxy)-8-fluoroquinazolin-7-yl)naphthalen-2-ol dihydrochloride] | 60.5 µM | 0.356 µM | 0.0939 µM |
| Cn1cnc(Cn2ccc3ccc(CNCc4[nH]c5ccccc5c4[C@H]4NC(=O)c5ccc(O)cc54)cc32)c1 [BI-2852, reference compound] | 0.136 µM | 2.7 µM | 0.238 µM |
| CCc1cccc2cc(O)cc(-c3c(F)cc4c(N5CC6CCC(C5)N6)nc(OCCCN5C6CCC5COC6)nc4c3F)c12 (single isomer, unassigned) [Compound 271a, 4-((7S or 7R)-2-(3-(3-oxa-8-azabicyclo[3.2.1]octan-8-yl)propoxy)-4-((1R,5S)-3,8-diazabicyclo[3.2.1]octan-3-yl)-6,8-difluoroquinazolin-7-yl)-5-ethylnaphthalen-2-ol diformate] | 0.179 µM | 0.0114 µM | 0.00986 µM |
| C[C@@H]1CCCN1CCCOc1nc(N2CC3CCC(C2)N3)c2cc(Cl)c(-c3cc(O)cc4ccccc34)c(F)c2n1 (single isomer, unassigned) [Compound 108a, 4-((S or R)-4-((1R,5S)-3,8-diazabicyclo[3.2.1]octan-3-yl)-6-chloro-8-fluoro-2-(3-((R)-2-methylpyrrolidin-1-yl)propoxy)quinazolin-7-yl)naphthalen-2-ol dihydrochloride] | 2.3 µM | 0.212 µM | 0.0563 µM |
| Oc1cc(-c2c(Cl)cc3c(N4CC5CCC(C4)N5)nc(OCCCN4CCCC4)nc3c2F)c2ccccc2c1 (single isomer, unassigned) [Compound 63a, 4-((S or R)-4-((1R,5S)-3,8-diazabicyclo[3.2.1]octan-3-yl)-6-chloro-8-fluoro-2-(3-(pyrrolidin-1-yl)propoxy)quinazolin-7-yl)naphthalen-2-ol] | 1.58 µM | 0.134 µM | 0.0178 µM |
| Oc1cc(-c2c(Cl)cc3c(N4CC5CCC(C4)N5)nc(OC[C@@H]4CCCN4CC4CC4)nc3c2F)c2ccccc2c1 [Compound 172, 4-(4-((1R,5S)-3,8-diazabicyclo[3.2.1]octan-3-yl)-6-chloro-2-((S)-1-(cyclopropylmethyl)pyrrolidin-2-yl)methoxy)-8-fluoroquinazolin-7-yl)naphthalen-2-ol dihydrochloride] | 0.658 µM | 0.0627 µM | 0.0193 µM |
| C[C@H]1CCCCN1CCOc1nc(N2CC3CCC(C2)N3)c2cc(Cl)c(-c3cc(O)cc4ccccc34)c(F)c2n1 (single isomer, unassigned) [Compound 268, (R or S)-4-(4-((1R,5S)-3,8-diazacyclo[3.2.1]octan-3-yl)-6-chloro-8-fluoro-2-(2-((S)-2-methylpiperidin-1-yl)ethoxy)quinazolin-7-yl)naphthalen-2-ol diformate] | 3.61 µM | 0.346 µM | 0.0524 µM |
| Oc1cc(-c2c(Cl)cc3c(N4CC5CCC(C4)N5)nc(OC[C@@]45CCCN4C[C@H](F)C5)nc3c2F)c2c(F)c(F)ccc2c1 (single isomer, unassigned) [Compound 214a, 4-((S or R)-4-((1R,5S)-3,8-diazabicyclo[3.2.1]octane-3-yl)-6-chloro-8-fluoro-2-((2R,7aS)-2-fluorotetrahydro-1H-pyrrolidin-7a (5H)-yl)methoxy)quinazolin-7-yl)-5,6-difluoronaphthalen-2-ol diformate] | 0.00801 µM | 0.00868 µM | 0.0132 µM |
| C[C@@H]1COC[C@H](C)N1CCCOc1nc(N2CC3CCC(C2)N3)c2cc(Cl)c(-c3cc(O)cc4ccccc34)c(F)c2n1 (single isomer, unassigned) [Compound 175, (R or S)-4-(4-((1R,5S)-3,8-diazabicyclo[3.2.1]octan-3-yl)-6-chloro-2-(3-((3R,5S)-3,5-dimethylmorpholinyl)propoxy)-8-fluoroquinazolin-7-yl)naphthalen-2-ol formate] | 4.3 µM | 0.303 µM | 0.104 µM |
| Oc1cc(-c2c(Cl)cc3c(N4CC5CCC(C4)N5)nc(OCCCN4C5CC6CC4CC(C5)O6)nc3c2F)c2ccccc2c1 (single isomer, unassigned) [Compound 235, 4-((S or R)-2-(3-((1R,3R,5R,7R)-2-oxa-6-azadamantan-6-yl)propoxy)-4-((1R,5S)-3,8-diazabicyclo[3.2.1]octan-3-yl)-6-chloro-8-fluoroquinazolin-7-yl)naphthalen-2-ol formate] | 1.77 µM | 0.149 µM | 0.0524 µM |
| CN(C)C1CN(c2nc(N3C[C@H]4CC[C@@H](C3)N4)c3cc(Cl)c(-c4cc(O)cc5ccccc45)c(F)c3n2)C1 (single isomer, unassigned) [Compound 5a, (R or S)-4-(4-((1R,5S)-3,8-diazabicyclo [3.2.1]octan-3-yl)-6-chloro-2-(3-(dimethylamino)azetidin-1-yl)-8-fluoro-quinazolin-7-yl)naphthalen-2-ol] | 1.81 µM | 0.251 µM | 0.0414 µM |
| Oc1cc(-c2c(Cl)cc3c(N4CC5CCC(C4)N5)nc(OC[C@@H]4CCCN4C4CC4)nc3c2F)c2ccccc2c1 (single isomer, unassigned) [Compound 163, 4-((R or S)-4-((1R,5S)-3,8-diazabicyclo[3.2.1]octan-3-yl)-6-chloro-2-((S)-1-cyclopropylpyrrolidin-2-yl)methoxy)-8-fluoroquinazolin-7-yl)naphthalen-2-ol dihydrochloride] | 0.787 µM | 0.0498 µM | 0.0186 µM |
| CCN(C)CCCOc1nc(N2CC3CCC(C2)N3)c2cc(Cl)c(-c3cc(O)cc4ccccc34)c(F)c2n1 (single isomer, unassigned) [Compound 49a] | 1.71 µM | 0.159 µM | 0.0362 µM |
| C[C@@H]1COCCN1CCCOc1nc(N2C[C@H]3CC[C@@H](C2)N3)c2cc(Cl)c(-c3cc(O)cc4ccccc34)c(F)c2n1 (single isomer, unassigned) [Compound 181, (R or S)-4-(4-((1R,5S)-3,8-diazabicyclo[3.2.1]octan-3-yl)-6-chloro-8-fluoro-2-(3-((R)-3-methylmorpholinyl)propoxy)quinazolin-7-yl)naphthalen-2-ol diformate] | 3.09 µM | 0.136 µM | 0.0381 µM |
| CN1C[C@H](F)C[C@H]1COc1nc(N2CC3CCC(C2)N3)c2cnc(-c3cc(O)cc4ccccc34)c(F)c2n1 [Compound 131] | 0.222 µM | 0.037 µM | 0.0209 µM |
